Source: BindingDB's records for doi:10.3109/14756366.2012.681653 (Atatürk University, 2013)
Where a name gives a salt, the structure may show the parent alone.

Molecular target: Serum paraoxonase/arylesterase 1 (Homo sapiens, UniProt P27169)
Experiment: PON Activity Assay
Procedure: PON activities were measured in the presence of different drug concentrations. Control activity was assumed to be 100% in the absence of inhibitor. Experiments of all compounds were tested in triplicate at each concentration used and Activity%-[Drug] graphs were drawn for each drug. Determination of Ki values was performed by using three different inhibitor concentrations. In these experiments, paraoxone was used as substrate at five different concentrations (0.15, 0.3, 0.45, 0.6, and 0.75 mM).

Chain of Serum paraoxonase/arylesterase 1 (P27169 whole entry): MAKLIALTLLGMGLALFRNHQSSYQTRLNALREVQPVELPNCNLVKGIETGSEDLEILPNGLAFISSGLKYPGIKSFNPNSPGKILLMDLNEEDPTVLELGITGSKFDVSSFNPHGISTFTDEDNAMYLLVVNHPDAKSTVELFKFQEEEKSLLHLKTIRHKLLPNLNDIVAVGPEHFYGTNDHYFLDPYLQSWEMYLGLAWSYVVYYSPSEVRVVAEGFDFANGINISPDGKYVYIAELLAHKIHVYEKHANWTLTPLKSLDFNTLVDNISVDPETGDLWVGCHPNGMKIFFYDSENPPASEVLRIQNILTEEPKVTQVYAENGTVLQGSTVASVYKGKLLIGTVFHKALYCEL

CCC[C@@H]1C[C@@H](C(=O)N[C@@H]([C@H]2O[C@H](SC)[C@H](O)[C@@H](O)[C@H]2O)[C@@H](C)O)N(C)C1 [(2S,4R)-N-((1R,2R)-2-hydroxy-1-((2R,3R,4S,5R,6R)-3,4,5-trihydroxy-6-(methylthio)-tetrahydro-2H-pyran-2-yl)propyl)-1-methyl-4-propylpyrrolidine-2-carboxamide] was tested, and the Ki was 18.3 mM.
CCC[C@@H]1C[C@@H](C(=O)N[C@@H]([C@H]2O[C@H](SC)[C@H](OP(=O)(O)O)[C@@H](O)[C@H]2O)[C@H](C)Cl)N(C)C1 [Clindamycin phosphate] was tested, and the Ki was 35.8 mM.
CCN[C@@H]1C[C@H](N)[C@H](O[C@H]2OC(CN)=CC[C@H]2N)[C@H](O)[C@H]1O[C@H]1OC[C@](C)(O)[C@H](NC)[C@H]1O [Netilmycin sulfate] gave a Ki of 3.73 mM.
In the case of CN(C)[C@@H]1C(=O)C(C(N)=O)=C(O)[C@@]2(O)C(=O)C3=C(O)c4c(O)cccc4[C@@](C)(O)[C@H]3[C@H](O)[C@@H]12 [Oxytetracycline hydrochloride], the Ki is reported as 0.2 mM.
CN[C@H]1[C@@H](O[C@@H]2[C@@H](O[C@H]3[C@H](O)[C@@H](O)[C@H](N=C(N)N)[C@@H](O)[C@@H]3N=C(N)N)O[C@H](C)[C@@]2(O)C=O)O[C@H](CO)[C@@H](O)[C@@H]1O [Streptomycin sulfate] showed a Ki of 56.3 mM.
